In patent publication US8008346B2, “Chemotherapeutic agents for inhibition of protein translation” (The Royal University for the Advancement of Learning/McGill …, priority 2006, dated 2011):
Numbered stars: 1 amine (or outer) side, 2 acyl side, 3 side chain; on linkers, the order of the positions; unused ones are H or OH. Bridge positions count the residues as written; N and C are the ends. Square brackets hold non-standard residues; d marks the D form. Peptide text beside a SMILES is read from it. I, II: the chains in the order shown. Actinocin(9to1) = Cc1c2oc3c(C)ccc(C(=O)[*:1])c3nc-2c(C(=O)[*:2])c(N)c1=O; NMeV = CN[C@H](C(=O)O)C(C)C; Sar = CNCC(=O)O

What was measured:
[1] = tested on: Lymphomas derived from Eμ-myc, Eμ-myc×Tsc2(−/+), or Bcl2/Eμ-myc mice; experiment: Growth/cytotoxicity in lymphoma cell lines in culture; format: cell-based
Text: FIG. 15. Clofoctol Inhibits growth of tumor cell lines in culture. Lymphomas derived from Eμ-myc, Eμ-myc×Tsc2(−/+), or Bcl2/Eμ-myc mice were exposed to the indicated concentrations of Clofoctol and cytotoxicity monitored.

4E-BP = experiment: Western blot of 4E-BP and S6K phosphorylation status in MEFs stimulated with insulin (± rapamycin); format: cell-based, murine
Method: (§1) FIG. 14. (A) Western blot analysis of 4E-BP and S6K phosphorylation status in MEFs (murine embryo fibroblasts) stimulated with insulin (±rapamycin). Antibodies to pan-4E-BP and eIF4E antibodies were used. The phosphorylation status of 4E-BP is evident by a shift to a slower mobility species (shift from α to γ species). […] (B) Clofoctol inhibits protein synthesis in cells. MEF cells were incubated for 45 minutes in the presence of increasing amounts of clofoctol in methionine-free culture media. S^35-methionine was then added to the cell culture and incubation continued for 15 minutes. The amount of S^35-methionine incorporated into newly synthesized proteins was detected by TCA precipitation of the cell lysate following by scintillation counting. Results are expressed relative to the incorporation in the presence of 0.5% DMSO.

MEF cells = experiment: S35-methionine incorporation (protein synthesis) in MEF cells; format: cell-based, murine; details: 45 min + 15 min labeling, relative to 0.5% DMSO
Method: as §1

human tumor stem cell = details: in vitro; cited from earlier work
HeLa cells [2] = experiment: 3H-uridine incorporation (RNA synthesis) in HeLa cells; format: cell-based; details: 50 μM, 60 min, normalized to DMSO, positive control, data not shown
Method: (§2) FIG. 4. Effect of hippuristanol on protein, RNA and DNA synthesis in cells. A. Relative rate of ^35S-methionine incorporation as a function of hippuristanol concentration in HeLa cells. Cells were exposed to the indicated concentration of compound for 50 min., followed by a 10 min. labeling period with ^35S-methionine in the presence of compound. The rate of protein synthesis (TCA precipitable cpm) obtained in the presence of compound was normalized to the rate obtained in the presence of DMSO (which was set at 1). The rate of protein synthesis in the control reactions (containing DMSO vehicle) averaged ˜700,000 cpm/10 min. labeling period. Results are shown for two experiments and the error of the mean is presented. The relative rate of ^35S-methionine incorporation in HeLa cells exposed to 10 μM anisomycin (positive control) for 60 min. was ˜0.02 (data not shown). B. Effect of hippuristanol on protein (gray circles), DNA (open squares), and RNA (solid squares) synthesis in HeLa cells. […] Gradients were analyzed by piercing the tube with a Brandel tube piercer, passing 60% sucrose through the bottom of the tube, and monitoring the absorbance of the material eluting from the tube using an ISCO UA-6 UV Detector.

HeLa cell polyribosomes = experiment: HeLa cell polyribosome profile on sucrose gradients; format: cell-based; details: 10 uM, 20 min
Method: as §2

HeLa cells [3] = experiment: 35S-methionine incorporation (protein synthesis) in HeLa cells; format: cell-based; details: HeLa cells, 10 μM, 60 min; normalized to DMSO (set at 1); positive control, data not shown
Method: FIG. 4. Effect of hippuristanol on protein, RNA and DNA synthesis in cells. A. Relative rate of ^35S-methionine incorporation as a function of hippuristanol concentration in HeLa cells. Cells were exposed to the indicated concentration of compound for 50 min., followed by a 10 min. labeling period with ^35S-methionine in the presence of compound. The rate of protein synthesis (TCA precipitable cpm) obtained in the presence of compound was normalized to the rate obtained in the presence of DMSO (which was set at 1). The rate of protein synthesis in the control reactions (containing DMSO vehicle) averaged ˜700,000 cpm/10 min. labeling period. Results are shown for two experiments and the error of the mean is presented. The relative rate of ^35S-methionine incorporation in HeLa cells exposed to 10 μM anisomycin (positive control) for 60 min. was ˜0.02 (data not shown). B. Effect of hippuristanol on protein (gray circles), DNA (open squares), and RNA (solid squares) synthesis in HeLa cells. The rate of macromolecular synthesis (TCA precipitable cpm for a 10 min. labeling period) obtained in the presence of 1 μM hippuristanol was normalized to the rate obtained in the presence of DMSO and is plotted. The results are shown for two experiments and the error of the mean is presented. The rate of protein, RNA and DNA synthesis in the control reactions (containing DMSO vehicle) averaged ˜900,000 cpm/10 min, ˜16,000 cpm/10 min. and 7,000 cpm/10 min labeling, respectively. The relative rate of ^35S-methionine incorporation by HeLa cells exposed to 10 μM anisomycin for 60 min. (positive control for inhibition of protein synthesis) was 0.02 (data not shown). The relative rate of ^3H-uridine incorporation by HeLa cells exposed to 50 μM actinomycin (positive control for inhibition of RNA synthesis) for 60 min. was 0.01 (data not shown). C. […] Gradients were analyzed by piercing the tube with a Brandel tube piercer, passing 60% sucrose through the bottom of the tube, and monitoring the absorbance of the material eluting from the tube using an ISCO UA-6 UV Detector.

[4] = tested on: Akt-driven Eμ-myc lymphomas; experiment: Akt-driven Eμ-myc lymphoma model, combination with doxorubicin; format: in vivo, Mice; details: hippurin-1 5 mg/kg every day for 5 days, doxorubicin 10 mg/kg once on day 2 of 5
Method: FIG. 13. Efficacy of hippurin-1 on Akt-driven Eμ-myc lymphomas when administered in combination with doxorubicin. Mice bearing Akt-driven Eμ-myc lymphomas where injected with either doxorubicin (10 mg/kg once on day 2 of 5), hippurin-1 alone (5 mg/kg every day for 5 days) or hippurin-1 and doxorubicin (hippurin-1: 5 mg/kg every day for 5 days, doxorubicin: 10 mg/kg once on day 2 of 5). Tumor size was monitored by (A) palpation (blinded study) and (B) blood smears on days 1, 3 and 5 during the treatment to assess the size of the lymphomas and the number of leukemic cells, respectively.

murine leukemia cells = details: also in a number of human tumor xenografts; cited from earlier work

CC(C)(C)CC(C)(C)c1ccc(O)c(Cc2ccc(Cl)cc2Cl)c1 [Clofoctol]
growth of tumor cell lines in culture [1]: Inhibits
phosphorylation status of 4E-BP (4E-BP; MEF cells, in the presence or absence of rapamycin): causes dephosphorylation of 4E-BP
S6 phosphorylation in the presence of rapamycin (4E-BP; MEFs, FIG. 14A lane 4 vs 3): antagonizes rapamycin's block of S6 phosphorylation
protein synthesis in cells (MEF cells): inhibits

CC[C@H](C)[C@H]1NC(=O)[C@@H](NC(=O)[C@@H](CC(C)C)N(C)C(=O)[C@@H]2CCCN2C(=O)C(C)O)[C@@H](C)OC(=O)[C@H](Cc2ccc(OC)cc2)N(C)C(=O)[C@@H]2CCCN2C(=O)[C@H](CC(C)C)NC(=O)[C@@H](C)C(=O)[C@H](C(C)C)OC(=O)C[C@@H]1O (stereo partly shown) [Didemnin B]
concentrations inhibiting cell growth (human tumor stem cell): 1 to 100 nM

Cc1c2oc3c(C)ccc(C(=O)N[C@@H]4C(=O)N[C@H](C(C)C)C(=O)N5CCC[C@H]5C(=O)N(C)CC(=O)N(C)[C@@H](C(C)C)C(=O)O[C@@H]4C)c3nc-2c(C(=O)N[C@@H]2C(=O)N[C@H](C(C)C)C(=O)N3CCC[C@H]3C(=O)N(C)CC(=O)N(C)[C@@H](C(C)C)C(=O)O[C@@H]2C)c(N)c1=O [actinomycin] (I: T[dV]P[Sar][NMeV] / II: T[dV]P[Sar][NMeV]; ester I:1-I:C, II:1-II:C; linker I:N-II:N via Actinocin(9to1))
relative rate of 3H-uridine incorporation (HeLa cells [2]): 0.01

COc1ccc(C[C@H]2NC[C@H](O)[C@H]2OC(C)=O)cc1 [anisomycin, reference compound]
effect on HeLa cell polyribosomes (HeLa cell polyribosomes): blocked elongation and caused an accumulation of ribosomes in polysomes
relative rate of 35S-methionine incorporation (HeLa cells [3]): ~0.02

CC(=O)O[C@@H]1C[C@@]2(C)[C@@H](CC[C@@H]3[C@@H]2[C@@H](O)C[C@@]2(C)[C@H]3C[C@@H]3O[C@@]4(C[C@H](C)C(C)(C)O4)[C@](C)(O)[C@@H]32)C[C@@H]1O [hippurin-1]
adjuvant effect to doxorubicin in a mouse lymphoma model [4]: can act as adjuvant

dehydrodidemnin 6
activity relative to didemnin B (murine leukemia cells): ten times more active
